In US20100120700A1, “METHODS AND COMPOSITIONS FOR TREATING CERVICAL CANCER” (priority 2000, published 2010):
“And” between values parts separate entries of the source, which are not always exact repeats. Equal entries are not always repeated.

Key:
Assay in all cases: G assay PDZ-PL binding
SSTRIP domain 1 = target: T1, SSTRIP domain 1 (Homo sapiens, UniProt Q9Y566); conditions: peptide 10 uM, protein 5
T1 construct: made in house; host or cells: E. coli (DH5alpha, BL21 or JM109)
Summary of the method: (§1)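 Plate ELISA: anti-GST antibody coat, BSA block, then GST/PDZ fusion (GST alone as negative control). Biotinylated PL peptide 20 uM (10 uM in G′ variant) added, 10 min 4 °C plus 20 min 25 °C; streptavidin-HRP, TMB, absorbance 450 nm.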

[1] = target: T2, HEMBA 1003117 #193.3 domain 1 (Homo sapiens, UniProt Q96JH8); conditions: peptide 10 uM, protein 5
T2 construct: made in house; host or cells: E. coli (DH5alpha, BL21 or JM109)
Summary of the method: as §1

KIAA0316 domain 1 = target: T3, KIAA0316 domain 1 (Homo sapiens, UniProt Q14CM0); conditions: peptide 10 uM, protein 5
T3 construct: made in house; host or cells: E. coli (DH5alpha, BL21 or JM109), vector pGEX-3X
Summary of the method: as §1

NSP #42.5 domain 1 = target: T4, NSP #42.5 domain 1 (Homo sapiens, UniProt Q92743); conditions: peptide 10 uM, protein 5
T4 construct: made in house; host or cells: E. coli (DH5alpha or BL-21)
Summary of the method: as §1

MUPP1 domain 7 = target: T5, MUPP1 domain 7 (Homo sapiens, UniProt O75970); conditions: peptide 10 uM, protein 5
T5 construct: made in house; host or cells: E. coli (DH5alpha, BL21 or JM109)
Summary of the method: as §1

MINT1 domain 1, 2 = target: T6, MINT1 domain 1, 2 (Homo sapiens, UniProt Q02410); conditions: peptide 10 uM, protein 5
T6 construct: When more than one PDZ domain was cloned, the DNA portion cloned represents the PDZ domains and the cDNA portion located between individual domains; made in house; host or cells: E. coli (DH5alpha, BL21 or JM109), vector pGEX-3X
Summary of the method: as §1

NeDLG domain 1 = target: T7, NeDLG domain 1 (Homo sapiens, UniProt Q92796, D190E); conditions: peptide 10 uM, protein 5
T7 construct: made in house; host or cells: E. coli (DH5alpha, BL21 or JM109)
Summary of the method: as §1

Magi2 domain 1 = target: T8, Magi2 domain 1 (Homo sapiens, UniProt Q86UL8); conditions: vs GST only well, peptide 10 uM, protein 5
T8 construct: made in house; host or cells: E. coli (DH5alpha, BL21 or JM109)
Summary of the method: as §1

MUPP1 domain 13 = target: T9, MUPP1 domain 13 (Homo sapiens, UniProt O75970); conditions: peptide 10 uM, protein 5
T9 construct: made in house; host or cells: E. coli (DH5alpha or BL-21)
Summary of the method: as §1

KIAA0561 domain 1 = target: T10, KIAA0561 domain 1 (Homo sapiens, UniProt O60307); conditions: peptide 10 uM, protein 5
T10 construct: made in house; host or cells: E. coli (DH5alpha, BL21 or JM109)
Summary of the method: as §1

PTPL1 domain 2 = target: T11, PTPL1 domain 2 (Homo sapiens, UniProt Q12923); conditions: peptide 10 uM, protein 5
T11 construct: made in house; host or cells: E. coli (DH5alpha, BL21 or JM109)
Summary of the method: as §1

MINT1 domain 2 = target: T12, MINT1 domain 2 (Homo sapiens, UniProt Q02410); conditions: peptide 10 uM, protein 5
T12 construct: made in house; host or cells: E. coli (DH5alpha, BL21 or JM109), vector pGEX-3X
Summary of the method: as §1

INADL domain 6 = target: T13, INADL domain 6 (Homo sapiens, UniProt Q8NI35, G1085V); conditions: peptide 10 uM, protein 5
T13 construct: made in house; host or cells: E. coli (DH5alpha, BL21 or JM109)
Summary of the method: as §1

T6 sequence (Q02410 651-828 limits assumed): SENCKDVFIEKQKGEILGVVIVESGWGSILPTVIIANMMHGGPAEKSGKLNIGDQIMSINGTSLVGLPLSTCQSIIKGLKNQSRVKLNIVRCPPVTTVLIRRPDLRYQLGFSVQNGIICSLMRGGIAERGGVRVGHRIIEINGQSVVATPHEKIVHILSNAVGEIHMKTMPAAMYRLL
T12 sequence (Q02410 with tags, fused parts or gaps): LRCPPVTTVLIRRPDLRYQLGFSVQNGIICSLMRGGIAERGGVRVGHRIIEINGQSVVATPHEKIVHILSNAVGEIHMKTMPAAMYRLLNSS
T9 sequence (O75970 1980-2070): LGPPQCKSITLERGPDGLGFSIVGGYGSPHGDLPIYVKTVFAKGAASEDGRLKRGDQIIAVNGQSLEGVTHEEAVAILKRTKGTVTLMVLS
T3 sequence (Q14CM0 72-159): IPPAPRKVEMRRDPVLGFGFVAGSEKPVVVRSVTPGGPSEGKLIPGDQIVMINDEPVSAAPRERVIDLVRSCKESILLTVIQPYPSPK
T1 sequence (Q9Y566 with tags, fused parts or gaps): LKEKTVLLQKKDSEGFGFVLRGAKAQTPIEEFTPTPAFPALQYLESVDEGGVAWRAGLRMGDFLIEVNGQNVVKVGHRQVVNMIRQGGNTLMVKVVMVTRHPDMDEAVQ
T13 sequence (Q8NI35 with tags, fused parts or gaps G1085V): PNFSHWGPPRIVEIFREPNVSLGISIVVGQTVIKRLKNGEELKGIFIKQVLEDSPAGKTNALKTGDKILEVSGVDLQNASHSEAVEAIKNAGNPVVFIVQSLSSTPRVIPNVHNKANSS
T4 sequence (Q92743 359-473): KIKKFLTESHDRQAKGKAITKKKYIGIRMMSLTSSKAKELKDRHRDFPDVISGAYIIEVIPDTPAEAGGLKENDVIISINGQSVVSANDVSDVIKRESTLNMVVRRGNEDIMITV
T5 sequence (O75970 with tags, fused parts or gaps): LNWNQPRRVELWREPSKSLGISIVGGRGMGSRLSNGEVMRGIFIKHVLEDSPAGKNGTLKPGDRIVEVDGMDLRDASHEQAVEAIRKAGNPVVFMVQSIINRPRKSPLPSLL
T8 sequence (Q86UL8 408-511): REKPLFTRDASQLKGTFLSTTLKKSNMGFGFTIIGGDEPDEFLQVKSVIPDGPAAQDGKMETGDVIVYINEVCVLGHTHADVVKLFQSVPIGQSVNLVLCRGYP
T7 sequence (Q92796 with tags, fused parts or gaps D190E): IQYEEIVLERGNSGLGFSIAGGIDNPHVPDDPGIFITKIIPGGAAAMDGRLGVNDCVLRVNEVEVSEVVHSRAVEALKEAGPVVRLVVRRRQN
T10 sequence (O60307 with tags, fused parts or gaps): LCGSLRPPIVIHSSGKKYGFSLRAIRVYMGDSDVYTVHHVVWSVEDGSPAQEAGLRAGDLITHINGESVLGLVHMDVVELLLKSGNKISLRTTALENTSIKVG
T11 sequence (Q12923 1364-1458): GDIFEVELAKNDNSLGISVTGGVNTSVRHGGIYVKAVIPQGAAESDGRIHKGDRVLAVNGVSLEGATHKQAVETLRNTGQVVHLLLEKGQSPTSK
T2 sequence (Q96JH8 969-1068): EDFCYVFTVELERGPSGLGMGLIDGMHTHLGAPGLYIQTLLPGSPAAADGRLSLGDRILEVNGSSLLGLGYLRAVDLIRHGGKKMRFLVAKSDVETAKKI

## 20 mer peptide corresponding to the C-terminus of HPV16 E6 (PDZ ligand), biotinylated in binding assays; ends SSRTRRETQL (SEQ ID NO: 13) [HPV E6 #16]
SSTRIP domain 1; A450 nm
  Ave OD: 0.467
SSTRIP domain 1; vs GST only well
  OD S/N: 3.28
[1]; A450 nm
  Ave OD: 0.517
[1]; vs GST only well
  OD S/N: 2.20
KIAA0316 domain 1; A450 nm
  Ave OD: 0.343 and 0.6125
KIAA0316 domain 1; vs GST only well
  OD S/N: 2.34 and 2.56
NSP #42.5 domain 1; A450 nm
  Ave OD: 0.4165
NSP #42.5 domain 1; vs GST only well
  OD S/N: 1.95
MUPP1 domain 7; A450 nm
  Ave OD: 0.498
MUPP1 domain 7; vs GST only well
  OD S/N: 1.61
MINT1 domain 1, 2; A450 nm
  Ave OD: 0.3655 and 0.6075
MINT1 domain 1, 2; vs GST only well
  OD S/N: 1.42 and 2.11
NeDLG domain 1; A450 nm
  Ave OD: 0.5165
NeDLG domain 1; vs GST only well
  OD S/N: 1.98
Magi2 domain 1
  OD S/N: 11.59 and 7.23
MUPP1 domain 13; A450 nm
  Ave OD: 0.4355 and 0.4115
MUPP1 domain 13; vs GST only well
  OD S/N: 1.56 and 1.75
KIAA0561 domain 1; A450 nm
  Ave OD: 0.3475
KIAA0561 domain 1; vs GST only well
  OD S/N: 2.44
PTPL1 domain 2; A450 nm
  Ave OD: 0.348
PTPL1 domain 2; vs GST only well
  OD S/N: 1.80
MINT1 domain 2; A450 nm
  Ave OD: 0.5925
MINT1 domain 2; vs GST only well
  OD S/N: 2.76 and 2.24
INADL domain 6; A450 nm
  Ave OD: 0.518
INADL domain 6; vs GST only well
  OD S/N: 3.07
